ChEMBL document CHEMBL1153858, “Application of phosphonyl carbanions to highly regioselective synthesis of some diazaphospholes and pyrazolinyl phosphonates” (2009)

Columns and labels:
Type in all cases: functional
Aspergillus niger [1] = test: Antimicrobial activity against Aspergillus niger
Penicillium chrysogenum [2] = test: Antimicrobial activity against Penicillium chrysogenum
Klebsiella pneumoniae [3] = test: Antimicrobial activity against Klebsiella pneumoniae assessed as activity index
Aspergillus flavus [4] = test: Antimicrobial activity against Aspergillus flavus assessed as activity index
Staphylococcus aureus [5] = test: Antimicrobial activity against Staphylococcus aureus assessed as activity index
Penicillium chrysogenum [6] = test: Antimicrobial activity against Penicillium chrysogenum assessed as activity index
Klebsiella pneumoniae [7] = test: Antimicrobial activity against Klebsiella pneumoniae
[8] = system: Agrobacterium tumefaciens; test: Antimicrobial activity against Bacillus tumefaciens assessed as activity index
Aspergillus flavus [9] = test: Antimicrobial activity against Aspergillus flavus
Staphylococcus aureus [10] = test: Antimicrobial activity against Staphylococcus aureus
[11] = system: Agrobacterium tumefaciens; test: Antimicrobial activity against Bacillus tumefaciens
Aspergillus niger [12] = test: Antimicrobial activity against Aspergillus niger assessed as activity index

Compound	Diameter of inhibition zone (Aspergillus niger [1])	Diameter of inhibition zone (Penicillium chrysogenum [2])	Activity (Klebsiella pneumoniae [3])	Activity (Aspergillus flavus [4])	Activity (Staphylococcus aureus [5])	Activity (Penicillium chrysogenum [6])	Diameter of inhibition zone (Klebsiella pneumoniae [7])	Activity [8]	Diameter of inhibition zone (Aspergillus flavus [9])	Diameter of inhibition zone (Staphylococcus aureus [10])	Diameter of inhibition zone [11]	Activity (Aspergillus niger [12])
CCOP1(=O)C(C(=O)OC)=NN(CC)C12C(=O)c1ccccc1C2=O (stereo unspecified)	8.4 mm	7.9 mm	1.04	1.12	0.85	1.31	10.3 mm	0.9	9 mm	9 mm	12.2 mm	1.18
CCOP(=O)(OCC)C1=NN(CC)C2(C1=O)C(=O)c1ccccc1C2=O	6.1 mm	5.9 mm	0.63	0.88	0.83	1.06	8.2 mm	0.57	7.4 mm	7.6 mm	7.6 mm	0.73
CCOP(=O)(OCC)C1=NN(CC)C2(C1)C(=O)c1ccccc1C2=O	4.3 mm	9 mm	1	0.62	0.61	0.71	7.6 mm	0.84	5 mm	8 mm	9.8 mm	0.66
CCOP1(=O)C(SC)=NN(CC)C12C(=O)c1ccccc1C2=O (stereo unspecified)	8 mm	9.2 mm	0.81	1.36	1.16	1.32	10.5 mm	0.92	9.8 mm	12.8 mm	12.6 mm	1.14
CCn1nc(SC)oc2c3ccccc3c(=O)c1=2	4.9 mm	5.6 mm	0.32	0.41	0.26	0.54	5.1 mm	0.55	6.2 mm	5.9 mm	5.6 mm	1.31
CCOP(=O)(OCC)C1=C(N)C2(N=N1)C(=O)c1ccccc1C2=O	5.4 mm	5.2 mm	0.47	0.78	52	0.71	6 mm	0.75	6.3 mm	7.2 mm	8.4 mm	0.73
CCOC(=O)C1=NN(CC)C2(C(=O)c3ccccc3C2=O)P1(=O)OCC (stereo unspecified)	7.4 mm	7.8 mm	0.8	1.35	0.88	1.42	11.3 mm	0.78	9.6 mm	8.5 mm	11 mm	1.23
CCOP1(=O)C(C#N)=NN(CC)C12C(=O)c1ccccc1C2=O (stereo unspecified)	9 mm	8 mm	1.16	1.15	0.92	1	12 mm	0.89	11.3 mm	10 mm	10 mm	1.14
